Assays:
[1] = test system: Staphylococcus epidermidis; experiment: Permeability of Bodipy-tagged compound across Staphylococcus epidermidis RP62A biofilms assessed as diffusion coefficient at 23 degC by time lapse confocal scanning microscopy; format: ADME, organism-based; details: in vivo
[2] = test system: Staphylococcus epidermidis; experiment: Permeability of rhodamine-tagged compound across Staphylococcus epidermidis RP62A biofilms assessed as diffusion coefficient at 23 degC by time lapse confocal scanning microscopy; format: ADME, organism-based; details: in vivo
[3] = test system: Staphylococcus epidermidis; experiment: Permeability of unlabeled compound across Staphylococcus epidermidis RP62A biofilms assessed as diffusion coefficient at 23 degC by time lapse confocal scanning microscop; format: ADME, organism-based; details: in vivo
[4] = test system: Staphylococcus epidermidis; experiment: (§1) Permeability of Bodipy-tagged compound across Staphylococcus epidermidis RP62A biofilms with 181 micrometer radial dimensions and 103 micrometer orthogonal dimensions assessed as time required for fluorescence intensity in centre of biofilm cluster to reach 50% of steady state maximum bulk fluid fluorescence intensity; format: ADME, organism-based; details: in vivo
[5] = test system: Staphylococcus epidermidis; experiment: as §1, with “278” for “181”, “168” for “103”; format: ADME, organism-based; details: in vivo
[6] = test system: Staphylococcus epidermidis; experiment: as §1, with “223” for “181”, “153” for “103”; format: ADME, organism-based; details: in vivo
[7] = test system: Staphylococcus epidermidis; experiment: as §1, with “rhodamine-tagged” for “Bodipy-tagged”, “217” for “181”, “115” for “103”; format: ADME, organism-based; details: in vivo
[8] = test system: Staphylococcus epidermidis; experiment: as §1, with “rhodamine-tagged” for “Bodipy-tagged”, “207” for “181”, “97” for “103”; format: ADME, organism-based; details: in vivo
[9] = test system: Staphylococcus epidermidis; experiment: as §1, with “rhodamine-tagged” for “Bodipy-tagged”, “94” for “181”, “63” for “103”; format: ADME, organism-based; details: in vivo
[10] = Aqueous diffusion coefficient of Bodipy-tagged compound at 23 degC by time lapse confocal scanning microscopy; format: physicochemical; details: buffer
[11] = Aqueous diffusion coefficient of rhodamine-tagged compound at 23 degC by time lapse confocal scanning microscopy; format: physicochemical; details: buffer

Work on CCCCCCCCCC(=O)N[C@@H](Cc1c[nH]c2ccccc12)C(=O)N[C@H](CC(N)=O)C(=O)N[C@@H](CC(=O)O)C(=O)N[C@@H]1C(=O)NCC(=O)N[C@@H](CCCN)C(=O)N[C@@H](CC(=O)O)C(=O)N[C@H](C)C(=O)N[C@@H](CC(=O)O)C(=O)NCC(=O)N[C@H](CO)C(=O)N[C@@H]([C@H](C)CC(=O)O)C(=O)N[C@@H](CC(=O)c2ccccc2N)C(=O)O[C@@H]1C yielded a D [1] of 5.2 ×10⁻⁷ cm2/sec, a D [2] of 4.7 ×10⁻⁷ cm2/sec and a D [3] of 0.78 ×10⁻⁶ cm2/s. The Time [4] was 67 s, the Time [5] was 210 s and the Time [6] was 60 s. It also gave a Time [7] of 140 s, a Time [8] of 40 s and a Time [9] of 26 s. It also gave a D [10] of 1.73 ×10⁻⁶ cm2/s and a D [11] of 1.78 ×10⁻⁶ cm2/s.
